Measured values: patent US20190022117A1, “COMBINATION THERAPY” (NuCana plc, priority 2015, published 2019)
Read-outs that look alike come from different tables or passages of the source.

Legend:
SKOV3 cells = experiment: Sulforhodamine B (SRB) assay, single agent; type: cell-based; settings: SRB assay on day 4, read-out: IC50
Procedure: SKOV3 cells were purchased from American Type Culture Collection (ATCC). They were cultured at 37° C. and 5% CO2 in Gibco™ RMPI Medium 1640+GlutaMAX™-I (Life Technologies; 61870-010) with 10% Gibco™ FBS (Life Technologies; 10270-106) and 1% Gibco™ Penicillin-Streptomycin (Life Technologies; Ser. No. 15/140,122), known as complete medium, in a cell culture flask. Cisplatin was purchased from TEVA UK Limited (PL 00289/1146). Fluvastatin and Sulforaphane were both purchased from Merck Millipore Corporation (Catalogue numbers 344096 and 574215 respectively). (S)-NUC-1031 was provided by NuCana® Ltd.
SKOV3 cells were plated at 250 cells in 200 μl per well in the middle 60 wells of Costar® 3596 96-well plates, with the outer 36 wells filled with 200 μl PBS each. The cells were allowed to grow in complete medium for 48 hours before different drug compounds were added in. For single agent, cisplatin, (S)-NUC-1031, fluvastatin and sulforaphane in complete medium at 10 different concentrations were added into the middle 60 wells (Day 0). Each concentration was loaded in sextuplicate. Cells were exposed to the compounds for 24 hours and the compounds were replaced by pure complete medium. The experiment with fluvastatin was repeated with 4-day exposure instead of 24 hours. The plates were fixed with 50 μl 25% TCA solution at 4° C. for 60 minutes on day 4 after the drug compounds were added for Sulforhodamine B assay (see below).
After adding the TCA solution, the plates were washed under running tap water 10 times and were allowed to dry in the oven at 50° C. The cells were then stained with 50 μl SRB dye, and the dye was washed off with 1% glacial acetic acid for 4 times 30 minutes after SRB addition. The plates were then dried in the oven. SRB dye was allowed to dissolve in 150 μl 10 mM Tris buffer solution for 60 minutes on a rocker. The plates were read on Biohit BP800 Microplate Reader (Biohit Healthcare) and the absorbance was measured at 540 nm. […]

5637 = experiment: CellTiter-Glo cytotoxicity assay, single agents (Stage 1); type: cell-based; settings: CTG assay 72 h
Procedure: (§1) A2780, SK-OV-3, OVCAR-3, NCI-H460, NCI-H1975, NCI-H2122, 5637 and HT1376 were cultured in RPMI Medium 1640 (Invitrogen-22400105) supplemented with 10% fetal bovine serum (FBS; Invitrogen-10099141). All the cell lines were maintained in a humidified incubator at 37° C. with 5% CO2. Cell culture media and supplements were purchased from Invitrogen, and tissue culture flasks were purchased from Corning, 96-well plates and 384-well plates were purchased from Greiner. CellTiter-Glo Luminescent Cell Viability Assay kits were purchased from Promega (Promega-G7573), cells counter Vi-Cell was purchased from Beckman, detection instrument Envision was purchased from PerkinElmer.
(§2) Paclitaxcel (used as a reference) and cisplatin were purchased from SELLECK, and they were of highest purity available. All compounds attained solubility in DMSO and when diluted into culture media. DMSO, compounds solutions and culture media were warmed to 37° C. for the solution preparation and dilutions.
(§3) Eight cell lines were allowed to adhere to 96-well plates overnight (100 μL/well), for drug treatments with 3.16 fold dilution, 9 dose points, triplicates or vehicle control, compound stock solutions were prepared in DMSO and added to the wells to give the indicated final drug concentrations. Final DMSO concentration was 0.5%. Cellular ATP concentrations were assessed by using the CellTiter-Glo Cell Viability Assay as per the manufacturer's instructions 72 h after drug addition.
(§4) In Stage 1 the IC50 (using 5 or more concentrations) of each individual compound (cisplatin, gemcitabine and NUC-1031) in the relevant cell lines was determined.

A2780 = experiment: as above; type: cell-based; settings: CTG assay 72 h
Procedure: as §1, §2, §3, §4

HT1376 = experiment: as above; type: cell-based
Procedure: as §1, §2, §3, §4

NCI-H1975 = experiment: as above; type: cell-based; settings: CTG assay 72 h
Procedure: as §1, §2, §3, §4

NCI-H460 = experiment: as above; type: cell-based; settings: CTG assay 72 h
Procedure: as §1, §2, §3, §4

OVCAR-3 = experiment: as above; type: cell-based; settings: CTG assay 72 h
Procedure: as §1, §2, §3, §4

SK-OV3 = experiment: as above; type: cell-based
Procedure: as §1, §2, §3, §4

biliary tract cancer = settings: cited from earlier work
HT1376 (Bladder) = experiment: CellTiter-Glo combination analysis (Stage 2); type: cell-based; settings: cisplatin alone dose-effect curve
Procedure: A2780, SK-OV-3, OVCAR-3, NCI-H460, NCI-H1975, NCI-H2122, 5637 and HT1376 were cultured in RPMI Medium 1640 (Invitrogen-22400105) supplemented with 10% fetal bovine serum (FBS; Invitrogen-10099141). All the cell lines were maintained in a humidified incubator at 37° C. with 5% CO2. Cell culture media and supplements were purchased from Invitrogen, and tissue culture flasks were purchased from Corning, 96-well plates and 384-well plates were purchased from Greiner. CellTiter-Glo Luminescent Cell Viability Assay kits were purchased from Promega (Promega-G7573), cells counter Vi-Cell was purchased from Beckman, detection instrument Envision was purchased from PerkinElmer. 8 cell lines were allowed to adhere to 384 well plates overnight (60 μL/well), for combination study, four combinations of two compounds will be investigated twice, keeping one compound at a fixed concentration while increasing the concentration of the second compound (10 fold dilution, 5 dose points), compound stock solutions were prepared in DMSO and added to the wells to give the indicated final drug concentrations by D300e digital dispenser. […] Cellular ATP concentrations were assessed by using the CellTiter-Glo Cell Viability Assay as per the manufacturer's instructions 72 hours after drug addition. Stage 2 determined the interaction of selected combinations of compounds on cancer cell growth. […]

[1] = absolute IC50, read-out: Ab IC50
[2] = Homo sapiens, absolute IC50, read-out: Ab IC50
[3] = Homo sapiens, relative IC50, read-out: IC50
[4] = CTG assay 72 h, absolute IC50, read-out: Ab IC50
[5] = CTG assay 72 h, relative IC50, read-out: IC50

## C[S+]([O-])CCCCN=C=S (stereo not drawn) [sulforaphane, Sulforaphane]
SKOV3 cells; Homo sapiens, SK-OV-3, 24 hours exposure
  IC50: 7000 nM

## Nc1ccn([C@@H]2O[C@H](CO)[C@@H](O)C2(F)F)c(=O)n1 [Gemcitabine]
5637
  Max Inhibition_%: 84.49%
5637; [1]
  IC50: 10 nM
5637; relative IC50, read-out: IC50
  IC50: 10 nM
A2780
  Max Inhibition_%: 81.15%
A2780; [2]
  IC50: 10 nM
A2780; [3]
  IC50: 10 nM
HT1376; CTG assay 72 h
  Max Inhibition_%: 9.60%
HT1376; Homo sapiens, HT-1376, CTG assay 72 h, absolute IC50, read-out: Ab IC50
  IC50: > 1980 nM
HT1376; Homo sapiens, HT-1376, CTG assay 72 h, relative IC50, read-out: IC50
  IC50: > 1980 nM
NCI-H1975
  Max Inhibition_%: 62.12%
NCI-H1975; [2]
  IC50: 80 nM
NCI-H1975; [3]
  IC50: 20 nM
NCI-H460
  Max Inhibition_%: 96.28%
NCI-H460; [2]
  IC50: 10 nM
NCI-H460; [3]
  IC50: 10 nM
OVCAR-3
  Max Inhibition_%: 6.95%
OVCAR-3; [2]
  IC50: > 1980 nM
OVCAR-3; [3]
  IC50: 20 nM
SK-OV3; CTG assay 72 h
  Max Inhibition_%: 65.74%
SK-OV3; Homo sapiens, SK-OV-3, CTG assay 72 h, absolute IC50, read-out: Ab IC50
  IC50: 20 nM
SK-OV3; Homo sapiens, SK-OV-3, CTG assay 72 h, relative IC50, read-out: IC50
  IC50: 20 nM
Biliary tract cancer; ABC-02, 410 patients with BTC
  overall survival (median): 8.1 months
Biliary tract cancer; ABC-02, patients with BTC
  progression-free survival (median): 5 months

## N.N.[Cl][Pt][Cl] [Cisplatin, cisplatin]
5637
  Max Inhibition_%: 101.74%
5637; [1]
  IC50: 13700 nM
5637; relative IC50, read-out: IC50
  IC50: 13200 nM
A2780
  Max Inhibition_%: 99.05%
A2780; [1]
  IC50: 11000 nM
A2780; relative IC50, read-out: IC50
  IC50: 10100 nM
HT1376; CTG assay 72 h
  Max Inhibition_%: 71.90%
HT1376; [4]
  IC50: 20500 nM
HT1376; [5]
  IC50: 18400 nM
NCI-H1975
  Max Inhibition_%: 103.60%
NCI-H1975; [1]
  IC50: 69600 nM
NCI-H1975; relative IC50, read-out: IC50
  IC50: 69200 nM
NCI-H460
  Max Inhibition_%: 97.56%
NCI-H460; [1]
  IC50: 2590 nM
NCI-H460; relative IC50, read-out: IC50
  IC50: 2570 nM
OVCAR-3
  Max Inhibition_%: 79.59%
OVCAR-3; [1]
  IC50: 28300 nM
OVCAR-3; relative IC50, read-out: IC50
  IC50: 23500 nM
SK-OV3; CTG assay 72 h
  Max Inhibition_%: 86.42%
SK-OV3; [4]
  IC50: 45600 nM
SK-OV3; [5]
  IC50: 33700 nM
HT1376 (Bladder); listed as Cisplatin 2, read-out: IC50 (curve shift method)
  IC50: 58000 nM
HT1376 (Bladder); read-out: IC50 (curve shift method)
  IC50: 64400 nM
SKOV3 cells; 24 hours exposure
  IC50: 2440 nM
